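Tested at 5 concentrations; 48 h exposure; 96-well plates; endpoints linearly interpolated, else capped at highest concentration. Here, GI50 denotes the concentration required for 50% inhibition of growth.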 The source made the active and inactive calls. No stated cut-off is given here; in the data, active = GI50 up to about 1.1 µM and inactive = higher.
Legend:
Experiment in all cases: NCI anticancer screen, dose series, 48 h
786-0 = test system: 786-0
A498 = test system: A498
A549 = test system: A549
ACHN = test system: ACHN
CAKI-1 = test system: CAKI-1
CCRF-CEM = test system: CCRF-CEM
COLO 205 = test system: COLO 205
DLD-1 = test system: DLD-1
DMS-114 = test system: DMS-114
EKVX = test system: EKVX
HCC 2998 = test system: HCC 2998
HCT-15 = test system: HCT-15
HL-60 = test system: HL-60
HOP-62 = test system: HOP-62
HOP-92 = test system: HOP-92
HT-29 = test system: HT-29
IGROV-1 = test system: IGROV-1
K562 = test system: K562
KM-20L2 = test system: KM-20L2
KM12 = test system: KM12
LOX IMVI = test system: LOX IMVI
LXFL 529 = test system: LXFL 529
M14 = test system: M14
MOLT-4 = test system: MOLT-4
Malme-3M = test system: Malme-3M
NCI-H226 = test system: NCI-H226
NCI-H23 = test system: NCI-H23
NCI-H460 = test system: NCI-H460
NCI-H522 = test system: NCI-H522
OVCAR-3 = test system: OVCAR-3
OVCAR-4 = test system: OVCAR-4
OVCAR-5 = test system: OVCAR-5
OVCAR-8 = test system: OVCAR-8
RPMI-8226 = test system: RPMI-8226
RXF 393 = test system: RXF 393
RXF 631 = test system: RXF 631
SF-268 = test system: SF-268
SF-295 = test system: SF-295
SF-539 = test system: SF-539
SK-MEL-28 = test system: SK-MEL-28
SK-MEL-2 = test system: SK-MEL-2
SK-MEL-5 = test system: SK-MEL-5
SK-OV-3 = test system: SK-OV-3
SN12C = test system: SN12C
SNB-75 = test system: SNB-75
SNB-78 = test system: SNB-78
SW-620 = test system: SW-620
TK-10 = test system: TK-10
U-251 = test system: U-251
UACC-257 = test system: UACC-257
UACC-62 = test system: UACC-62
UO-31 = test system: UO-31
XF498 = test system: XF498
BT-549 = test system: BT-549
DMS-273 = test system: DMS-273
DU-145 = test system: DU-145
HCT-116 = test system: HCT-116
HOP-18 = test system: HOP-18
Hs-578T = test system: Hs-578T
M19-MEL = test system: M19-MEL
MCF7 = test system: MCF7
MDA-MB-231 = test system: MDA-MB-231
MDA-MB-435 = test system: MDA-MB-435
MDA-N = test system: MDA-N
NCI/ADR-RES = test system: NCI/ADR-RES
PC-3 = test system: PC-3
SNB-19 = test system: SNB-19
SR = test system: SR
T47D = test system: T47D

In the case of `O=C1O[C@@H](c2ccccc2)C[C@@H]1CN1CCOCC1`, the GI50 (786-0) is reported as > 100000 nM (inactive), the GI50 (A498) is reported as > 100000 nM (inactive) and the GI50 (A549) is reported as > 100000 nM (inactive). The GI50 (ACHN) was > 100000 nM (inactive), the GI50 (CAKI-1) was 65500 nM (inactive) and the GI50 (CCRF-CEM) was > 100000 nM (inactive). For the same compound, the GI50 (COLO 205) was > 100000 nM (inactive), the GI50 (DLD-1) was > 100000 nM (inactive) and the GI50 (DMS-114) was > 100000 nM (inactive). The GI50 (EKVX) was > 100000 nM (inactive), the GI50 (HCC 2998) was > 100000 nM (inactive) and the GI50 (HCT-15) was greater than 100000 nM. The GI50 (HL-60) was > 100000 nM (inactive), the GI50 (HOP-62) was > 100000 nM (inactive) and the GI50 (HOP-92) was > 100000 nM (inactive). For the same compound, the GI50 (HT-29) was > 100000 nM (inactive), the GI50 (IGROV-1) was > 100000 nM (inactive) and the GI50 (K562) was > 100000 nM (inactive). For the same compound, the GI50 (KM-20L2) was > 100000 nM (inactive), the GI50 (KM12) was > 100000 nM (inactive) and the GI50 (LOX IMVI) was > 100000 nM (inactive). The GI50 (LXFL 529) was > 100000 nM (inactive), the GI50 (M14) was > 100000 nM (inactive) and the GI50 (MOLT-4) was > 100000 nM (inactive). For the same compound, the GI50 (Malme-3M) was > 100000 nM (inactive), the GI50 (NCI-H226) was > 100000 nM (inactive) and the GI50 (NCI-H23) was 26300 nM (inactive). The GI50 (NCI-H460) was > 100000 nM (inactive), the GI50 (NCI-H522) was > 100000 nM (inactive) and the GI50 (OVCAR-3) was > 100000 nM (inactive). The GI50 (OVCAR-4) was > 100000 nM (inactive), the GI50 (OVCAR-5) was > 100000 nM (inactive) and the GI50 (OVCAR-8) was > 100000 nM (inactive). For the same compound, the GI50 (RPMI-8226) was 59400 nM (inactive), the GI50 (RXF 393) was > 100000 nM (inactive) and the GI50 (RXF 631) was > 100000 nM (inactive). For the same compound, the GI50 (SF-268) was > 100000 nM (inactive), the GI50 (SF-295) was > 100000 nM (inactive) and the GI50 (SF-539) was > 100000 nM (inactive). For the same compound, the GI50 (SK-MEL-28) was > 100000 nM (inactive), the GI50 (SK-MEL-2) was > 100000 nM (inactive) and the GI50 (SK-MEL-5) was > 100000 nM (inactive). For the same compound, the GI50 (SK-OV-3) was > 100000 nM (inactive), the GI50 (SN12C) was > 100000 nM (inactive) and the GI50 (SNB-75) was > 100000 nM (inactive). The GI50 (SNB-78) was > 100000 nM (inactive), the GI50 (SW-620) was > 100000 nM (inactive) and the GI50 (TK-10) was > 100000 nM (inactive). For the same compound, the GI50 (U-251) was > 100000 nM (inactive), the GI50 (UACC-257) was > 100000 nM (inactive) and the GI50 (UACC-62) was > 100000 nM (inactive). The GI50 (UO-31) was > 100000 nM (inactive) and the GI50 (XF498) was > 100000 nM (inactive).
For `CCCC(=O)N[C@H]1CCc2cc(OC)c(OC)c(OC)c2-c2ccc(SC)c(=O)cc21`, the GI50 (786-0) was < 10 nM (active), the GI50 (A498) was < 10 nM (active) and the GI50 (A549) was < 10 nM (active). For the same compound, the GI50 (ACHN) was < 10 nM (active), the GI50 (BT-549) was < 10 nM (active) and the GI50 (CAKI-1) was < 10 nM (active). For the same compound, the GI50 (CCRF-CEM) was < 46.5 nM (active), the GI50 (COLO 205) was < 10 nM (active) and the GI50 (DLD-1) was < 10 nM (active). The GI50 (DMS-114) was < 10 nM (active), the GI50 (DMS-273) was < 10 nM (active) and the GI50 (DU-145) was < 10 nM (active). For the same compound, the GI50 (EKVX) was 51900 nM (inactive), the GI50 (HCC 2998) was < 10 nM (active) and the GI50 (HCT-116) was < 10 nM (active). For the same compound, the GI50 (HCT-15) was 10.9 nM, the GI50 (HL-60) was < 10 nM (active) and the GI50 (HOP-18) was > 35800 nM (inactive). The GI50 (HOP-62) was < 10 nM (active), the GI50 (HOP-92) was < 10 nM (active) and the GI50 (HT-29) was < 10 nM (active). For the same compound, the GI50 (Hs-578T) was < 10 nM (active), the GI50 (IGROV-1) was < 10 nM (active) and the GI50 (K562) was < 10 nM (active). The GI50 (KM-20L2) was < 10 nM (active), the GI50 (KM12) was < 10 nM (active) and the GI50 (LOX IMVI) was < 10 nM (active). For the same compound, the GI50 (LXFL 529) was < 10 nM (active), the GI50 (M14) was < 10 nM (active) and the GI50 (M19-MEL) was < 10 nM (active). The GI50 (MCF7) was < 10 nM (active), the GI50 (MDA-MB-231) was < 10 nM (active) and the GI50 (MDA-MB-435) was < 10 nM (active). For the same compound, the GI50 (MDA-N) was < 10 nM (active), the GI50 (MOLT-4) was < 10 nM (active) and the GI50 (Malme-3M) was < 10 nM (active). For the same compound, the GI50 (NCI-H226) was < 46.5 nM (active), the GI50 (NCI-H23) was < 10 nM (active) and the GI50 (NCI-H460) was < 10 nM (active). The GI50 (NCI-H522) was < 10 nM (active), the GI50 (NCI/ADR-RES) was 16 nM (active) and the GI50 (OVCAR-3) was < 10 nM (active). For the same compound, the GI50 (OVCAR-4) was 17100 nM (inactive), the GI50 (OVCAR-5) was 278 nM (active) and the GI50 (OVCAR-8) was < 10 nM (active). The GI50 (PC-3) was < 10 nM (active), the GI50 (RPMI-8226) was 63.1 nM (active) and the GI50 (RXF 393) was 175 nM (active). The GI50 (RXF 631) was < 10 nM (active), the GI50 (SF-268) was < 10 nM (active) and the GI50 (SF-295) was < 10 nM (active). The GI50 (SF-539) was < 10 nM (active), the GI50 (SK-MEL-28) was < 10 nM (active) and the GI50 (SK-MEL-2) was < 10 nM (active). For the same compound, the GI50 (SK-MEL-5) was < 10 nM (active), the GI50 (SK-OV-3) was 143 nM (active) and the GI50 (SN12C) was < 10 nM (active). For the same compound, the GI50 (SNB-19) was < 10 nM (active), the GI50 (SNB-75) was < 10 nM (active) and the GI50 (SNB-78) was < 10 nM (active). The GI50 (SR) was < 10 nM (active), the GI50 (SW-620) was < 10 nM (active) and the GI50 (T47D) was > 100000 nM (inactive). For the same compound, the GI50 (TK-10) was < 41.1 nM (active), the GI50 (U-251) was < 10 nM (active) and the GI50 (UACC-62) was < 10 nM (active). For the same compound, the GI50 (UO-31) was 310 nM (active).
